In assay [1] the test system is GP34-A11R cross-reactive T cell lines (TCL #1, #3, #7). The format is cell-based, C57BL/6 (B6) mice.
Assay [2] relates to CD8+ T cells from acute day 8 LCMV-infected mice. The format is cell-based, C57BL/6 (B6) mice.
The target in another assay is H-2K^b (Mus musculus, UniProt P01901). The format is binding, murine.
H-2K^b, sequence (P01901 whole entry, looked up): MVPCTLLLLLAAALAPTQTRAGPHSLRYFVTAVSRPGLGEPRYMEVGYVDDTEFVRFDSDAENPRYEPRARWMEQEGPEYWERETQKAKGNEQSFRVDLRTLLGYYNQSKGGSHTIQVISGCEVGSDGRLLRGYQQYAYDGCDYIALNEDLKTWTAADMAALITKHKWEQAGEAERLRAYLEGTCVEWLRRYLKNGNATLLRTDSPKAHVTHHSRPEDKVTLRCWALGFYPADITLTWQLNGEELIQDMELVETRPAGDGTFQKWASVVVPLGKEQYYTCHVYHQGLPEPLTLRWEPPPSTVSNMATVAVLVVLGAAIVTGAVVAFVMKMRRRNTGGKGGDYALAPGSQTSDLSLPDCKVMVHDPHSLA

In the case of SIINFAAL [OVA-AA], in assay [1], the “CD8+ T cells responding (IFNγ), TCL #7” value is listed as “not cross-reactive”. In addition, the “IFNγ production ex vivo, acute LCMV-infected mice (OVA hybrid experiment)” value in assay [2] is given as “not observed”.

Consider SIYRYYGL, for which, in assay [2], the “IFNγ response, % of total CD8+ T cells” value was “not observed”.

In the case of SIINFEKL [OVA], on H-2K^b, the “Tm of K^b-peptide complex” value was found to be 51.5 °C. Moreover, the “CD8+ T cells responding (IFNγ), TCL #7” value in assay [1] was “does not cross-react”.

The values are drawn from publication PMC3844262 (Journal of immunology (Baltimore, Md. : 1950), 2013).
